# From ChEMBL document CHEMBL3886414, “Bicarbocyclic and tricarbocyclic ethynyl derivatives and uses of same” (2015)
# Target: Metabotropic glutamate receptor 5 (Homo sapiens, UniProt P41594)
# Experiment: Calcium Mobilization Assay: The rmGluR5 or hmGluR5 was stably expressed in a HEK 293 cell line and gown in Dulbecco's Modified Eagle Medium (DMEM) (Invitrogen, Carlsbad, Calif.) with supplements (10% bovine calf serum, 4 mM glutamine, 100 units/mL penicillin, 100 μg/mL streptomycin and 0.75 mM G1418) at 37° C., 5% CO2. Twenty-four hours prior to assay, cells were seeded into 384-well black wall microtiter plates coated with poly-D-lysine. Just prior to assay, media was aspirated and cells dye-loaded (25 μL/well) with 3 μM Fluo-4/0.01% pluronic acid in assay buffer (Hank's Balanced Saline Solution (HBSS)): 150 mM NaCl, 5 mM KCl, 1 mM CaCl2, 1 mM MgCl2, plus 20 mM N-2-Hydroxyethylpiperazine-N′-2-ethanesulfonic acid (HEPES), pH 7.4, 0.1% bovine serum albumin (BSA) and 2.5 mM probenecid) for 1 hour in 5% CO2 at 37° C. After excess dye was discarded, cells were washed in assay buffer and layered with a final volume equal to 30 μL/well. Basal fluorescence is monitored in a fluorometri
# Format: functional, cell-based, HEK293
# Sequence of Metabotropic glutamate receptor 5 (P41594 whole entry): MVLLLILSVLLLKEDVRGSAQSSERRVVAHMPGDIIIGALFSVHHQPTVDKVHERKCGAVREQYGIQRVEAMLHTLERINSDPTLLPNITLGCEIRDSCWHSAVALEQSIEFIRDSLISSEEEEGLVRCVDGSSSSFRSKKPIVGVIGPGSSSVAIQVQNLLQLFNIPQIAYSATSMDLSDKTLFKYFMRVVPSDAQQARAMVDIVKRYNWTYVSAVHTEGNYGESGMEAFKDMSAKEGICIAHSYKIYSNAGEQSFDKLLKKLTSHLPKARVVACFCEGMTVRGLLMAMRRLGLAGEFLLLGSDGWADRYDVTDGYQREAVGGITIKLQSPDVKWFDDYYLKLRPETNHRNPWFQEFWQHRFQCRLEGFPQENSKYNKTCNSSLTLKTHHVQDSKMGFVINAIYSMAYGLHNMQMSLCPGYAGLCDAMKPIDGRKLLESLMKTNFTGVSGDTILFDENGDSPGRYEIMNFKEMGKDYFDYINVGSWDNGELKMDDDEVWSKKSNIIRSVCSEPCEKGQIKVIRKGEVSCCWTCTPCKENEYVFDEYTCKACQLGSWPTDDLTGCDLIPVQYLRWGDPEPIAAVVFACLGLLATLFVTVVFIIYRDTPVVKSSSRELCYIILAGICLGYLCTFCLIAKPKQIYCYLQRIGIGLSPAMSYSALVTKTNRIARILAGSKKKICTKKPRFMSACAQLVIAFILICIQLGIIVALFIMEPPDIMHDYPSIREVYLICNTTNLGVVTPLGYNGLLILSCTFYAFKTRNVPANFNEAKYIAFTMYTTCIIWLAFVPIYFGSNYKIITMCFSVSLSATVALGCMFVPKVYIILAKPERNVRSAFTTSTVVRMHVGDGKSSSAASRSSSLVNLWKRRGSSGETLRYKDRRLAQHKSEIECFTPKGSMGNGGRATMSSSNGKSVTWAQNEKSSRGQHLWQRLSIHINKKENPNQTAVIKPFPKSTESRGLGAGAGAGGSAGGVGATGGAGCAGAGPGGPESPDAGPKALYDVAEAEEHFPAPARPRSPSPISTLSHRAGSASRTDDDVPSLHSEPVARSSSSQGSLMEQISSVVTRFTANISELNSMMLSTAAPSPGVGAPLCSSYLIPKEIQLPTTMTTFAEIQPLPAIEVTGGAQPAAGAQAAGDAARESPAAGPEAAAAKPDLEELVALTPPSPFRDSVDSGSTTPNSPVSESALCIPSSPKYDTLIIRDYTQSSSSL
row,SMILES,IC50
1,Cc1cncc(C(=O)NC23CC4CC(CC(C#Cc5cccnc5)(C4)C2)C3)n1,3.8 nM
2,O=C(N[C@@]12CCC[C@@](C#Cc3ncccc3F)(CC1)C2)c1cnccn1,9.3 nM
3,O=C(NC12CCCC(C#Cc3cccc(F)c3)(CC1)C2)c1cnccn1 (stereo unspecified),1.2 nM
4,Cc1ccc(C#CC23CC4CC(C2)CC(NC(=O)c2cnccn2)(C4)C3)cn1,700 nM
5,O=C(NC12CC3CC(CC(C#Cc4cnccn4)(C3)C1)C2)c1cncc(F)c1,30 nM
6,Cc1cccc(C#C[C@]23CCC[C@](NC(=O)c4ccccn4)(CC2)C3)n1,5.3 nM
